Measurements taken from patent US8247447B2, “Use of derivatives of 4-hydroxyphenoxy acetic acid” (Cognis IP Management GmbH, priority 2007, dated 2012).

Tested on: Melanocytes (B16 cell line)
Test: Melanogenesis inhibition assay (melanin level by optical density at 475 nm; viable cells by cellular proteins, Bradford's method)
Format: cell-based
Conditions: for Protein level (rate of cellular proteins) / Melanin level (rate of melanin): B16 melanocytes, 3 days incubation; for Protein level (rate of cellular proteins): Bradford's method; for Melanin level (rate of melanin): OD 475 nm
Protocol: Melanocytes (B16 cell line) were inoculated in standard medium of cell culture with foetal calf serum (FCS). After an incubation of 3 day at 37° C. and CO2=5%, growth medium was exchanged for standard medium with a range of concentrations for each compound to be tested and a control without ingredient. After an incubation of 3 days, the level of melanin was measured by recording the optical density at 475 nm. After washing the cells by a balanced salt, and homogenisation in a solution of 0.1 M NaOH, the number of viable cells was determined by evaluation of the level of cellular proteins (Bradford's method). The results are expressed in % against control (cell culture medium without compound) as a mean on 1 to 3 assays, each in triplicate.

SMILES: CC(Oc1ccc(O)cc1)C(=O)O (racemic) [2-(4-hydroxyphenoxy)-propionic acid]
- Protein level (rate of cellular proteins) (dose 0.00003 % (w/v)): 103 %/control
- Melanin level (rate of melanin) (dose 0.00003 % (w/v)): 84 %/control
- Protein level (rate of cellular proteins) (dose 0.0001 % (w/v)): 97 %/control
- Melanin level (rate of melanin) (dose 0.0001 % (w/v)): 57 %/control
- Protein level (rate of cellular proteins) (dose 0.0003 % (w/v)): 107 %/control
- Melanin level (rate of melanin) (dose 0.0003 % (w/v)): 52 %/control
- Protein level (rate of cellular proteins) (dose 0.001 % (w/v)): 104 %/control
- Melanin level (rate of melanin) (dose 0.001 % (w/v)): 39 %/control
- Protein level (rate of cellular proteins) (dose 0.01 % (w/v)): 98 %/control
- Melanin level (rate of melanin) (dose 0.01 % (w/v)): 37 %/control
- cell toxicity (melanocytes, doses up to 0.01%): without any cell toxicity
- rate of melanin synthesis in melanocytes (result in words, over the tested dose range): decreased in a dose dependant manner
